Assay results published in US20040132706A1, “Composition comprising a catalyst for the dismutation of superoxide and use of the composition for preventing and treating hypotension” (priority 2003, published 2004).
Entries after “also recorded” stand apart in the source; their conditions may differ.

Tests used:
[1] = test system: O2− generated by hypoxanthine/xanthine oxidase (HX/XO); experiment: Deactivation of catecholamines by hypoxanthine/xanthine oxidase superoxide generating system, HPLC detection; format: biochemical; conditions: HX 2 mM / XO 1 U/ml, n=6; for chemical detection of the catecholamines by HPLC after exposure to HX/XO: no SOD mimetic
Description: Catecholamine measurements. Catecholamines in test tube samples or plasma samples were identified and quantified by high pressure liquid chromatography with electrochemical detection (HPLC-EC). The system consists of a Varian model 2510 solvent delivery system and a model 9090 autosampler (Varian, Walnut Creek, Calif.) coupled to a C18 column and an ESA Coulochem II detector. Separations were performed isocratically using a filtered and degassed mobile phase consisting of 10% methanol, 0.1 M sodium phosphate, 0.2 mM sodium octyl sulfate and 0.1 mM EDTA, adjusted to pH 2.8 with phosphoric acid. The HPLC system is coupled to a PS-90 computer with which chromatograms were recorded and analyzed with Varian Star workstation software.
Hypoxanthine (HX;2 mM)/xanthine oxidase (XO; 1 U/ml) results in the generation of O2^− in the ratio of 2 molecules of O2^− to every one molecule of HX used.

[2] = test system: anaesthetized rat; experiment: Pressor effect of norepinephrine incubates on MAP in the anaesthetized rat; format: in vivo, Male Sprague Dawley rats; conditions: n=6
Description: (§1) Anaesthetized Rat Model. Male Sprague Dawley rats (250-300 g) were anaesthetized with inactin (100 mg/Kg intraperitoneally). The trachea was cannulated to facilitate respiration and body temperature was maintained at 37° C. by means of a heating pad. The left femoral vein was cannulated for administration of drugs. The left femoral artery was cannulated and connected to a pressure transducer to allow for the monitoring of blood pressure. Lipopolysaccharide from E. coli (LPS; 4 mg/Kg, serotype 0111:B4) was administered as a bolus intravenous injection at a volume of 0.3 ml. Control animals received saline at the same volume and by the same route. In experiments involving blood samples, such blood samples were withdrawn from the arterial cannula.
Male Sprague Dawley rats (250-300 g, 6 rats per group) were anaesthetized and prepared according to the methods of Example 1. 0.5 mg/Kg of norepinephrine was administered as an intravenous (i.v) bolus injection through the left femoral vein. Animals in a control group received saline at the same volume and by the same route. The left femoral artery was cannulated and connected to a pressure transducer to allow for the monitoring of blood pressure during the experiment. The change in the blood pressure of the animals was compared to the blood pressure of animals in the control group. The results of the tests can be found in FIG. 1. Norepinephrine raised the MAP of the rats by 34±3.7 mmHg (FIG. 1b; n=6). […] When SOD mimetic M40403 was included with HX/XO in the incubation mixture, the vasopressor actions of were protected as shown by its ability to restore MAP back to near control values (38±3.6 mmHg) (FIG. 1b; n=6).

[3] = test system: anaesthetized rat; experiment: LPS-induced hyporeactivity to exogenous norepinephrine in the anaesthetized rat; format: in vivo, Male Sprague Dawley rats
Description: as §1
Injection of E. coli lipopolysaccharide (LPS) to rats leads to the development of hyporeactivity to exogeneously administered norepinephrine which typically occurs in the first two hours. Male Sprague Dawley rats (250-300 g, number in group) were anaesthetized and prepared according to the methods of Example 1. Increasing dosages of norepinephrine (0.1, 0.5 and 1 mg/Kg) were given as intravenous bolus injections. Animals in a control group received saline at the same volume and by the same route. The left femoral artery was cannulated and connected to a pressure transducer to allow for the monitoring of blood pressure during the experiment. The change in the blood pressure of the animals was compared to the blood pressure of animals in the control group. […] Pressor responses to norepinephrine in rats not treated with LPS were unaffected by the SOD mimetic M40403 (FIG. 2; n=6).
Injection of E. coli lipopolysaccharide (LPS) to rats leads to the development of hyporeactivity to exogeneously administered norepinephrine which typically occurs in the first two hours. Male Sprague Dawley rats (250-300 g, number in group) were anaesthetised and prepared according to the methods of Example 1. Increasing dosages of norepinephrine (0.1, 0.5 and 1 mg/Kg) were given as intravenous bolus injections. Animals in a control group received saline at the same volume and by the same route. The left femoral artery was cannulated and connected to a pressure transducer to allow for the monitoring of blood pressure during the experiment. The change in the blood pressure of the animals was compared to the blood pressure of animals in the control group.

[4] = test system: anaesthetized rat; experiment: LPS-induced hypotension and mortality in the anaesthetized rat; format: in vivo, Male Sprague Dawley rats
Description: as §1
Intravenous injection of LPS (4 mg/Kg) in rats led to a profound fall in blood pressure associated with a high mortality rate (99±5% mortality at 9 hours, n=10, FIG. 3). Furthermore, the plasma levels of norepinephrine as well as the adrenochromes increased after LPS treatment (FIGS. 4a,b,c; n=10). Levels of the catecholamines and of the adrenochromes could not be evaluated at the 9 h timepoint (survival rate at this point was 1%, n=10).
(FIG. 3; n=10). Inhibition of hypotension by M40403 was associated with increased levels of catecholamines (FIGS. 4a and b) and concommittant decrease (FIG. 4c; n=10) in plasma levels of the adrenochromes, the reaction products of O2^− and these catecholamines. In addition, when the administration of M40403 was postponed until 5 hours post LPS in this model the severe hypotensive phase of this condition was reversed (FIG. 3; n=10).
When 15 mg/Kg of 5,10,15,20-tetrakis (2,4,6-trimethyl-3,5-disulfonatophenyl)-porphyrinato iron (III) (FeTMPS) was administered (i.v bolus injection 1 hour after LPS), the development of hypotension was prevented.

[5] = Plasma catecholamine and adrenochrome concentrations after LPS; format: in vivo, Male Sprague Dawley rats; conditions: M40403 0.25 mg/Kg/h given at 1 h post LPS 4 mg/Kg i.v.; n=10
Description: as §1, with “In experiments involving blood samples, such blood samples were withdrawn from the arterial cannula.” left out
Catecholamine measurements. Catecholamines in test tube samples or plasma samples were identified and quantified by high pressure liquid chromatography with electrochemical detection (HPLC-EC). […] The HPLC system is coupled to a PS-90 computer with which chromatograms were recorded and analyzed with Varian Star workstation software.
Adrenochrome measurements. The detection and quantification of the sum of the noradrenochrome and adrenochrome was carried out using an HPLC method utilising a Vydac C18 Pharmaceutical 4.6×250 mm column and with a 5% acetonitrile+95% SDS (10 mM) mobile phase (5 min elution), then 40% acetonitrile with 60% SDS plus 0.1% TFA (5 min elution) mobile phase, all eluted at […]. […]

In the case of [Cl-].[Cl-].[Mn+2].c1cc2nc(c1)CN[C@@H]1CCCC[C@H]1NCCN[C@@H]1CCCC[C@H]1NC2 [M40403], the “reduction of chemical detection (HPLC) of norepinephrine and epinephrine after incubation with HX/XO” value ([1]; M40403 10^−6 M, incubation 5 min) was “prevented”, the “ability of norepinephrine to increase MAP after incubation with HX/XO” value ([2]; M40403 in the incubate, incubation 5 min, norepinephrine 0.5 mg/Kg bolus i.v.) was “preserved” and the “increase in MAP by norepinephrine incubated with HX/XO plus M40403” value ([2]; norepinephrine 0.5 mg/Kg i.v. bolus, M40403 included in HX/XO incubation mixture) was 38±3.6 mmHg. The “pressor responses to norepinephrine two hours after LPS” value ([3]; M40403 0.25 mg/Kg, 15 min i.v. infusion 1 hour after LPS 4 mg/Kg, norepinephrine 0.1, 0.5 and 1 mg/Kg) was “restored”, the “hyporeactivity to norepinephrine after LPS” value ([3]; M40403 1 mg/Kg, LPS 4 mg/Kg, norepinephrine 0.1-1 mg/Kg, n=6) was “reversed” and the “reactivity (pressor responses) to norepinephrine in rats not treated with LPS” value ([3]; saline treated rats, M40403, n=6) was “unaffected; also recorded: not affected”. For the same molecule, the “fall in MAP (severe hypotensive phase) after LPS” value ([4]; M40403 0.25 mg/Kg administered at 5 h post LPS 4 mg/Kg i.v., n=10) was “reverses”, the “survival by 9 h” value ([4]; M40403 0.25 mg/Kg/h i.v. infusion 1 hour post LPS 4 mg/Kg, n=10) was 99±2% and the “fall in MAP (development of hypotension) after LPS” value ([4]; M40403 0.25 mg/Kg/h i.v. infusion from 1 h post LPS 4 mg/Kg i.v., n=10) was “prevents”. For the same molecule, the “plasma concentrations of adrenochromes versus LPS alone” value [5] was “decrease; also recorded: significantly lower” and the “plasma concentrations of epinephrine and norepinephrine versus LPS alone” value [5] was “increased; also recorded: significantly higher”.

For NC[C@H](O)c1ccc(O)c(O)c1 [norepinephrine, reference compound], the “chemical detection of the catecholamines by HPLC after exposure to HX/XO” value [1] was “significant decreases”, the “increase in MAP by norepinephrine after incubation with HX/XO” value ([2]; norepinephrine 0.5 mg/Kg i.v. bolus, incubated with HX/XO) was 17±2.5 mmHg and the “increase in MAP by norepinephrine” value ([2]; norepinephrine 0.5 mg/Kg i.v. bolus, not incubated) was 34±3.7 mmHg.

In the case of “5,10,15,20-tetrakis (2,4,6-trimethyl-3,5-disulfonatophenyl)-porphyrinato iron (III) [FeTMPS]”, the “hyporeactivity to exogenous norepinephrine after LPS” value ([3]; FeTMPS 15 mg/kg given at 1 h post LPS 4 mg/Kg) was “prevented; also recorded: reversed”, the “reactivity to norepinephrine in saline treated rats” value ([3]; FeTMPS, saline treated rats, n=6) was “not significantly affected” and the “fall in MAP after LPS, therapeutic treatment” value ([4]; FeTMPS 10 mg/Kg/h at 1 h post LPS 4 mg/Kg i.v. (FIG. 7)) was “prevents”. The “fall in MAP after LPS, prophylactic treatment” value ([4]; FeTMPS 10 mg/Kg/h at 1 h post LPS 4 mg/Kg i.v. (FIG. 8)) was “prevents” and the “development of hypotension after LPS” value ([4]; FeTMPS 15 mg/Kg i.v. bolus injection 1 hour after LPS) was “prevented”.

In the case of CNC[C@H](O)c1ccc(O)c(O)c1 [epinephrine], the “chemical detection of the catecholamines by HPLC after exposure to HX/XO” value [1] was “significant decreases”.
